Source: ChEMBL document CHEMBL1136459, “New antibacterial tetrahydro-4(2H)-thiopyran and thiomorpholine S-oxide and S,S-dioxide phenyloxazolidinones” (Bioorg Med Chem Lett, 2003)
In brackets after ≈: the same amount, converted by molar mass. Values belong to the molecule of their own block, whether it stands above or below them.

Tests used:
Enterococcus faecium = experiment: In vitro antibacterial activity against vancomycin-resistant Enterococcus faecium UC12712 (VRE).
Staphylococcus aureus [1] = experiment: In vitro antibacterial activity against Staphylococcus aureus strains UC12673, UC9213, ATCC 29213, and UC9271 (SA); range is 16-32; assay type: functional
Streptococcus pneumoniae [2] = experiment: In vitro antibacterial activity against Streptococcus pneumoniae strains ATCC 6305 and 31573 (SPN); range is 4-8
Moraxella catarrhalis [3] = experiment: In vitro antibacterial activity against Moraxella catarrhalis strains 30607 and 30603 (MC); range is 16-32; assay type: functional
Staphylococcus aureus [4] = experiment: In vitro antibacterial activity against linezolid-resistant Staphylococcus aureus ATCC 29213 (LRSA).; assay type: functional
[5] = tested on: Staphylococcus epidermidis; experiment: In vitro antibacterial activity against Staphylococcus epidermidis strains UC12084, 30031, and CDC-CNS90 (SE); range is 4-8; assay type: functional
Haemophilus influenzae [6] = experiment: In vitro antibacterial activity against Haemophilia influenzae strains 30063 and ATCC 31517 (HI); range is 32->64; assay type: functional
Moraxella catarrhalis [7] = experiment: In vitro antibacterial activity against Moraxella catarrhalis strains 30607 and 30603 (MC).; assay type: functional
Haemophilus influenzae [8] = experiment: In vitro antibacterial activity against Haemophilia influenzae strains ATCC 30063 and ATCC 31517; assay type: functional
Staphylococcus aureus [9] = experiment: In vitro antibacterial activity against Staphylococcus aureus strains UC12673, UC9213, ATCC 29213, and UC9271 (SA); assay type: functional
[10] = tested on: Staphylococcus epidermidis; experiment: In vitro antibacterial activity against Staphylococcus epidermidis strains UC12084, 30031, and CDC-CNS90 (SE); assay type: functional
Streptococcus pneumoniae [11] = experiment: In vitro antibacterial activity against Streptococcus pneumoniae strains ATCC6305 and 31573 (SPN).
Staphylococcus aureus [12] = experiment: In vitro antibacterial activity against Staphylococcus aureus strains UC12673, UC9213, ATCC 29213, and UC9271 (SA); range is 2-4; assay type: functional
Staphylococcus aureus [13] = experiment: In vitro antibacterial activity against Staphylococcus aureus strains UC12673, UC9213, ATCC 29213, and UC9271 (SA); range is 2-8; assay type: functional
Moraxella catarrhalis [14] = experiment: In vitro antibacterial activity against Moraxella catarrhalis strains 30607 and 30603 (MC); range is 8-16; assay type: functional
[15] = tested on: Staphylococcus epidermidis; experiment: In vitro antibacterial activity against Staphylococcus epidermidis strains UC12084, 30031, and CDC-CNS90 (SE); range is 1-2; assay type: functional
Streptococcus pneumoniae [16] = experiment: In vitro antibacterial activity against Streptococcus pneumoniae strains ATCC 6305 and 31573 (SPN).; assay type: functional
Moraxella catarrhalis [17] = experiment: In vitro antibacterial activity against Moraxella catarrhalis strains 30607 and 30603 (MC); range is 32->64; assay type: functional
[18] = tested on: Staphylococcus epidermidis; experiment: In vitro antibacterial activity against Staphylococcus epidermidis strains UC12084, 30031, and CDC-CNS90 (SE); range is 32-64; assay type: functional
Staphylococcus aureus [19] = experiment: In vitro antibacterial activity against Staphylococcus aureus strains UC12673, UC9213, ATCC 29213, and UC9271 (SA); range is 4-16; assay type: functional
Haemophilus influenzae [20] = experiment: In vitro antibacterial activity against Haemophilia influenzae strains 30063 and ATCC 31517 (HI); range is 4-16; assay type: functional
[21] = tested on: Staphylococcus epidermidis; experiment: In vitro antibacterial activity against Staphylococcus epidermidis strains UC12084, 30031, and CDC-CNS90 (SE); range is 0.5-1; assay type: functional
Staphylococcus aureus [22] = experiment: In vitro antibacterial activity against Staphylococcus aureus strains UC12673, UC9213, ATCC 29213, and UC9271 (SA); range is 4-8; assay type: functional
Haemophilus influenzae [23] = experiment: In vitro antibacterial activity against Haemophilia influenzae strains 30063 and ATCC 31517 (HI); range is 32-64; assay type: functional

SMILES: COCC(=O)NC[C@H]1CN(c2ccc(N3CC[S+]([O-])CC3)c(F)c2)C(=O)O1
MIC (Enterococcus faecium): 16 µg/mL (≈ 40.1 µM) | MIC (Staphylococcus aureus [1]): 16 µg/mL (≈ 40.1 µM) | MIC (Streptococcus pneumoniae [2]): 4 µg/mL (≈ 10 µM) | MIC (Moraxella catarrhalis [3]): 16 µg/mL (≈ 40.1 µM) | MIC (Staphylococcus aureus [4]): > 64 µg/mL | MIC [5]: 4 µg/mL (≈ 10 µM) | MIC (Haemophilus influenzae [6]): 32 µg/mL (≈ 80.1 µM)

SMILES: O=C1O[C@@H](CNC(=O)C(F)(F)F)CN1c1ccc(N2CC[S+]([O-])CC2)c(F)c1
MIC (Enterococcus faecium): > 64 µg/mL | MIC (Moraxella catarrhalis [7]): > 64 µg/mL | MIC (Haemophilus influenzae [8]): > 64 µg/mL | MIC (Staphylococcus aureus [4]): > 64 µg/mL | MIC (Staphylococcus aureus [9]): > 64 µg/mL | MIC [10]: > 64 µg/mL | MIC (Streptococcus pneumoniae [11]): > 64 µg/mL

SMILES: O=C(/C=C/c1ccc(Cl)cc1)NC[C@H]1CN(c2ccc(N3CC[S+]([O-])CC3)c(F)c2)C(=O)O1
MIC (Enterococcus faecium): 2 µg/mL (≈ 4.07 µM) | MIC (Staphylococcus aureus [12]): 2 µg/mL (≈ 4.07 µM) | MIC (Moraxella catarrhalis [7]): 8 µg/mL (≈ 16.3 µM) | MIC (Staphylococcus aureus [4]): 8 µg/mL (≈ 16.3 µM) | MIC [10]: 1 µg/mL (≈ 2.03 µM) | MIC (Haemophilus influenzae [6]): 32 µg/mL (≈ 65 µM)

SMILES: COc1ccc(/C=C/C(=O)NC[C@H]2CN(c3ccc(N4CC[S+]([O-])CC4)c(F)c3)C(=O)O2)cc1
MIC (Enterococcus faecium): 4 µg/mL (≈ 8.2 µM) | MIC (Moraxella catarrhalis [7]): > 64 µg/mL | MIC (Haemophilus influenzae [8]): > 64 µg/mL | MIC (Staphylococcus aureus [4]): > 64 µg/mL | MIC (Staphylococcus aureus [9]): 4 µg/mL (≈ 8.2 µM) | MIC [10]: 2 µg/mL (≈ 4.1 µM)

MIC (Staphylococcus aureus [13]): 2 µg/mL (≈ 3.89 µM) | MIC (Moraxella catarrhalis [14]): 8 µg/mL (≈ 15.5 µM) | MIC (Haemophilus influenzae [8]): 32 µg/mL (≈ 62.2 µM) | MIC [15]: 1 µg/mL (≈ 1.94 µM) | MIC (Streptococcus pneumoniae [16]): 8 µg/mL (≈ 15.5 µM)
SMILES: CC(=O)Oc1ccc(/C=C/C(=O)NC[C@H]2CN(c3ccc(C4CC[S+]([O-])CC4)c(F)c3)C(=O)O2)cc1 (stereo not given in full)

SMILES: O=C1O[C@@H](CNC(=O)C(F)(F)F)CN1c1ccc(N2CCS(=O)(=O)CC2)c(F)c1
MIC (Enterococcus faecium): 16 µg/mL (≈ 36.4 µM) | MIC (Staphylococcus aureus [1]): 16 µg/mL (≈ 36.4 µM) | MIC (Haemophilus influenzae [8]): ≥ 64 µg/mL | MIC (Moraxella catarrhalis [17]): 32 µg/mL (≈ 72.8 µM) | MIC (Staphylococcus aureus [4]): 16 µg/mL (≈ 36.4 µM) | MIC [10]: 8 µg/mL (≈ 18.2 µM)

MIC (Moraxella catarrhalis [7]): > 64 µg/mL | MIC (Haemophilus influenzae [8]): > 64 µg/mL | MIC (Staphylococcus aureus [9]): > 64 µg/mL | MIC (Streptococcus pneumoniae [16]): > 64 µg/mL | MIC [10]: 2 µg/mL (≈ 3.88 µM)
SMILES: O=C(NC[C@H]1CN(c2ccc(C3CCS(=O)(=O)CC3)c(F)c2)C(=O)O1)c1ccc(Cl)c(Cl)c1

SMILES: COc1ccc(OC)c(C(=O)NC[C@H]2CN(c3ccc(N4CC[S+]([O-])CC4)c(F)c3)C(=O)O2)c1
MIC (Enterococcus faecium): > 64 µg/mL | MIC (Moraxella catarrhalis [7]): > 64 µg/mL | MIC (Haemophilus influenzae [8]): > 64 µg/mL | MIC (Staphylococcus aureus [4]): > 64 µg/mL | MIC [18]: 32 µg/mL (≈ 65.1 µM) | MIC (Staphylococcus aureus [9]): ≥ 64 µg/mL

SMILES: O=C(NC[C@H]1CN(c2ccc(C3CCS(=O)(=O)CC3)c(F)c2)C(=O)O1)C(F)F
MIC (Staphylococcus aureus [19]): 4 µg/mL (≈ 9.51 µM) | MIC (Enterococcus faecium): 4 µg/mL (≈ 9.51 µM) | MIC (Haemophilus influenzae [20]): > 4 µg/mL | MIC (Moraxella catarrhalis [7]): 8 µg/mL (≈ 19 µM) | MIC [15]: 1 µg/mL (≈ 2.38 µM) | MIC (Staphylococcus aureus [4]): 32 µg/mL (≈ 76.1 µM) | MIC (Streptococcus pneumoniae [11]): 1 µg/mL (≈ 2.38 µM)

SMILES: O=C(CF)NC[C@H]1CN(c2ccc(C3CCS(=O)(=O)CC3)c(F)c2)C(=O)O1
MIC (Enterococcus faecium): 2 µg/mL (≈ 4.97 µM) | MIC [21]: 0.5 µg/mL (≈ 1.24 µM) | MIC (Haemophilus influenzae [20]): > 4 µg/mL | MIC (Moraxella catarrhalis [7]): > 8 µg/mL | MIC (Staphylococcus aureus [4]): 64 µg/mL (≈ 159 µM) | MIC (Staphylococcus aureus [9]): 2 µg/mL (≈ 4.97 µM) | MIC (Streptococcus pneumoniae [11]): 0.5 µg/mL (≈ 1.24 µM)

SMILES: O=C(/C=C/c1ccc(O)cc1)NC[C@H]1CN(c2ccc(C3CC[S+]([O-])CC3)c(F)c2)C(=O)O1 (stereo not given in full)
MIC (Enterococcus faecium): 4 µg/mL (≈ 8.46 µM) | MIC (Staphylococcus aureus [13]): 2 µg/mL (≈ 4.23 µM) | MIC (Moraxella catarrhalis [14]): 8 µg/mL (≈ 16.9 µM) | MIC (Haemophilus influenzae [8]): > 64 µg/mL | MIC [15]: 1 µg/mL (≈ 2.12 µM) | MIC (Staphylococcus aureus [4]): > 64 µg/mL

SMILES: O=C(/C=C/c1ccc(F)cc1)NC[C@H]1CN(c2ccc(N3CC[S+]([O-])CC3)c(F)c2)C(=O)O1
MIC (Enterococcus faecium): 4 µg/mL (≈ 8.41 µM) | MIC (Moraxella catarrhalis [3]): 16 µg/mL (≈ 33.6 µM) | MIC (Staphylococcus aureus [4]): 32 µg/mL (≈ 67.3 µM) | MIC (Staphylococcus aureus [22]): 4 µg/mL (≈ 8.41 µM) | MIC (Haemophilus influenzae [23]): 32 µg/mL (≈ 67.3 µM) | MIC [10]: 2 µg/mL (≈ 4.21 µM)

SMILES: O=C(NC[C@H]1CN(c2ccc(N3CC[S+]([O-])CC3)c(F)c2)C(=O)O1)c1csnn1
MIC (Enterococcus faecium): 16 µg/mL (≈ 36.4 µM) | MIC (Staphylococcus aureus [1]): 16 µg/mL (≈ 36.4 µM) | MIC (Haemophilus influenzae [8]): 64 µg/mL (≈ 146 µM) | MIC (Moraxella catarrhalis [17]): 32 µg/mL (≈ 72.8 µM) | MIC (Staphylococcus aureus [4]): > 64 µg/mL | MIC [10]: 8 µg/mL (≈ 18.2 µM)
